This note sets out measurements from patent US10196390B2, “TYK2 inhibitors and uses thereof” (Nimbus Lakshmi, Inc., priority 2014, dated 2019).

By Ki is commonly meant a measure of affinity in units of concentration, obtained from inhibition or displacement.

Where only a bound is given, the exact number is not on record here.

For one experiment, the target named is TYK2 (Homo sapiens (Human), UniProt P29597). In words: Tyk2 activity inhibition assay (radioactive kinase assay / Caliper assay). The experiment is classed as biochemical. The protocol:
Peptide substrate, [[…]], (20 μM) is prepared in reaction buffer (20 mM Hepes pH 7.5, 10 mM MgCl2, 1 mM EGTA, 0.02% Brij35, 0.02 mg/mL BSA, […], 2 mM DTT, 1% DMSO. TYK2 (Invitrogen) kinase is added, followed by compounds in DMSO. 33PATP is added to initiate the reaction in ATP at 10 μM. Kinase reaction is incubated for 120 min at room temp and reactions are spotted onto P81 ion exchange paper (Whatman #3698-915), and then washed extensively in 0.75% phosphoric acid, prior to reading the radioactivity counts. For JAK2 (Invitrogen) kinase assay the peptide substrate poly[Glu:Tyr](4:1), 0.2 mg/ml is used, in the reaction carried out the same as for TYK2.
(§1) The caliper machine employs an off chip mobility shift assay to detect phosphorylated peptide substrates from kinase assays, using microfluidics technology. The assays are carried out at ATP concentration equivalent to the ATP Km, and at 1 mM ATP. Compounds are serially diluted in DMSO then further diluted in assay buffer (25 mM HEPES, pH 7.5, 0.01% Brij-35, 0.01% Triton, 0.5 mM EGTA). 5 ul of diluted compound was added into wells first, then 10 ul of enzyme mix was added into wells, followed by 10 uL of substrate mix (peptide and ATP in 10 mM MgCl2) to start reaction. Reaction was incubated at 28° C. for 25 min and then added 25 ul stop buffer (100 mM HEPES, 0.015% Brij-35, 50 mM EDTA), followed by reading with Caliper. JAK2 at 1 nM final concentration and TYK2 at 9.75 nM are from Carna, and substrates used are ATP at 20 and 16 uM, respectively. JAK2 assay uses peptide 22 and TYK2 uses peptide 30 (Caliper), each at 3 uM.

Another experiment has as its target JAK2 (Homo sapiens (Human), UniProt O60674). In words: JAK2 activity inhibition assay (radioactive kinase assay / Caliper assay). The experiment is classed as biochemical. The note with it: read-out: JAK2 Ki. As for the experimental part: as §1, with “The assays are carried out at ATP concentration equivalent to the ATP Km, and at 1 mM ATP.” left out, “Caliper.” for “Caliper. JAK2 at 1 nM final concentration and TYK2 at 9.75 nM are from Carna, and substrates used are ATP at 20 and 16 uM, respectively. JAK2 assay uses peptide 22 and TYK2 uses peptide 30 (Caliper), each at 3 uM.”

TYK2, sequence (P29597 whole entry): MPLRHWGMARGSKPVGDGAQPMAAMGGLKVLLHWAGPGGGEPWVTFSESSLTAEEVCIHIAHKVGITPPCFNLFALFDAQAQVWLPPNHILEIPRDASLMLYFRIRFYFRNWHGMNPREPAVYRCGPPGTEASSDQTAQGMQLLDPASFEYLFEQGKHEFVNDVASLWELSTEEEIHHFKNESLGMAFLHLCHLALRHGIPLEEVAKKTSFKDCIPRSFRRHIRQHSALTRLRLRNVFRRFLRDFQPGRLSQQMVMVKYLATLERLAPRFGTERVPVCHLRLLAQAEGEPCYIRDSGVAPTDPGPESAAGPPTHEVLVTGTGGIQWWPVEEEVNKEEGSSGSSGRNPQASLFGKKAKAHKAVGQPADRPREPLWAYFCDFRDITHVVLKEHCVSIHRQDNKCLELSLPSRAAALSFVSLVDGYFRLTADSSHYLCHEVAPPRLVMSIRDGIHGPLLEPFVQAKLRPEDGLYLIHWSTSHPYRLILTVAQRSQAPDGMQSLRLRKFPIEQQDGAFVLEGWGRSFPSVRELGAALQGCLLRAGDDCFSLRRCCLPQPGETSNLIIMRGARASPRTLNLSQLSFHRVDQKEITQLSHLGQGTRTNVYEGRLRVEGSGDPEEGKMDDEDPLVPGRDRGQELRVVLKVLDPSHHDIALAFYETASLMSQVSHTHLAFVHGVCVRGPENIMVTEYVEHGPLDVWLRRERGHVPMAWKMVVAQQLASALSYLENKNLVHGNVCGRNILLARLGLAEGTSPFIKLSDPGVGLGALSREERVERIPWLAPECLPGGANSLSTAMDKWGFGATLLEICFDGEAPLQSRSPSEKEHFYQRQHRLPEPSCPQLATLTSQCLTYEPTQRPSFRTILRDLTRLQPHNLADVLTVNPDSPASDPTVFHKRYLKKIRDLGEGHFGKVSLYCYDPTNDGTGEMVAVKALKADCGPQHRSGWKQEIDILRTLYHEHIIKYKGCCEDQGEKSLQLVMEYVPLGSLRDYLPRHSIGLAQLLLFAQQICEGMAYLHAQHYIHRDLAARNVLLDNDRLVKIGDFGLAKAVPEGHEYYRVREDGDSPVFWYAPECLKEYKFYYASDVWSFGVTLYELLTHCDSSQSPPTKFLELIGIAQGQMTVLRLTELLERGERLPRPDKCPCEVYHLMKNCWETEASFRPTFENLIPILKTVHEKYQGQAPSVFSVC
JAK2, sequence (O60674 whole entry): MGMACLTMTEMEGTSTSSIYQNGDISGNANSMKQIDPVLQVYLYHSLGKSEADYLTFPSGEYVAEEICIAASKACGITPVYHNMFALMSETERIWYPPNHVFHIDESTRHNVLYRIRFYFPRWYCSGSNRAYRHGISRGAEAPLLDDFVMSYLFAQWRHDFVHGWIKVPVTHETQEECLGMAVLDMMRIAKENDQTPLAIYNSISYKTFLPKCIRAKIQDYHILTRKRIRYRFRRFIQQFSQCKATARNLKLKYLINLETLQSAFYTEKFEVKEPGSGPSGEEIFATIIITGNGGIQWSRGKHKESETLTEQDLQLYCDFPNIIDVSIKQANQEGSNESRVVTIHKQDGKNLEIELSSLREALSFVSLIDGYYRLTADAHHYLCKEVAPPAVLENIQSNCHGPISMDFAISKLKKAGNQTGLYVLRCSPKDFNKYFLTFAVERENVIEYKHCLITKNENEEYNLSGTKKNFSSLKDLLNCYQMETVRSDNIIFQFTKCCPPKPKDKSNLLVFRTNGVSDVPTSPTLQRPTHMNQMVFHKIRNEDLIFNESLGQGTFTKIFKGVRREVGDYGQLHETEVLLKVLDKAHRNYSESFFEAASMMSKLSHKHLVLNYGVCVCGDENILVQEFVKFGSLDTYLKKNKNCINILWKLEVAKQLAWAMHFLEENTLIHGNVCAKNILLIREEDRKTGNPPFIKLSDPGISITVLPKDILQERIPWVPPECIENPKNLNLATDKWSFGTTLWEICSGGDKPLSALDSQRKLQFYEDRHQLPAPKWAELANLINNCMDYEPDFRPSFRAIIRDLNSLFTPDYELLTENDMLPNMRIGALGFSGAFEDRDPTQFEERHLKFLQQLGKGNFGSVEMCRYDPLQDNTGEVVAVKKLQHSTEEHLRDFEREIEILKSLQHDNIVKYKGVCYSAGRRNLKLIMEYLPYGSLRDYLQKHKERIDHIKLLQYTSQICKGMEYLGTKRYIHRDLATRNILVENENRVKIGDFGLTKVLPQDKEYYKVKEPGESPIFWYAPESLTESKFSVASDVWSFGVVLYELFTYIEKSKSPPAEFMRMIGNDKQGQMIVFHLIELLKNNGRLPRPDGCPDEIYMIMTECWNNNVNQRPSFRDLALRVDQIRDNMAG

Regarding `CCOC(=O)Cc1ccc(Nc2nc(-c3ccccc3Cl)nc3c2C(=O)NC3)cc1` [Compound I-1, Ethyl 2-(4-((2-(2-chlorophenyl)-5-oxo-6,7-dihydro-5H-pyrrolo[3,4-d]pyrimidin-4-yl)amino)phenyl)acetate], the figures for the inhibition constant (Ki) on TYK2 and at JAK2 were less than 10 nM and 100 to 1000 nM, respectively.
For `O=C(O)Cc1ccc(Nc2nc(-c3c(F)cccc3F)nc3c2C(=O)NC3)cc1` [Compound I-2, 2-(4-((2-(2,6-difluorophenyl)-5-oxo-6,7-dihydro-5H-pyrrolo[3,4-d]pyrimidin-4-yl)amino)phenyl)acetic Acid] the same measures were less than 10 nM and more than 1000 nM.
Turning to `CCOC(=O)Cc1ccc(Nc2nc(-c3c(F)cccc3F)nc3c2C(=O)NC3)cc1` [Compound I-3, ethyl 2-(4-((2-(2,6-difluorophenyl)-5-oxo-6,7-dihydro-5H-pyrrolo[3,4-d]pyrimidin-4-yl)amino)phenyl)acetate], the Ki is less than 10 nM at TYK2 and 100 to 1000 nM on JAK2.
For `CCOC(=O)Cc1ccc(Nc2nc(-c3c(F)cccc3Cl)nc3c2C(=O)NC3)cc1` [Compound I-4, ethyl 2-(4-((2-(2-chloro-6-fluorophenyl)-5-oxo-6,7-dihydro-5H-pyrrolo[3,4-d]pyrimidin-4-yl)amino)phenyl)acetate] the same measures were less than 10 nM and 100 to 1000 nM.
Turning to `CCOC(=O)Cc1ccc(Nc2nc(-c3c(Cl)cccc3Cl)nc3c2C(=O)NC3)cc1` [Compound I-5, ethyl 2-(4-((2-(2,6-dichlorophenyl)-5-oxo-6,7-dihydro-5H-pyrrolo[3,4-d]pyrimidin-4-yl)amino)phenyl)acetate], the inhibitory constant (Ki) on TYK2 is less than 10 nM; on JAK2, 100 to 1000 nM.
As to `O=C(O)Cc1ccc(Nc2nc(-c3c(Cl)cccc3Cl)nc3c2C(=O)NC3)cc1` [Compound I-6, 2-(4-((2-(2,6-dichlorophenyl)-5-oxo-6,7-dihydro-5H-pyrrolo[3,4-d]pyrimidin-4-yl)amino)phenyl)acetic Acid], the Ki at TYK2 was less than 10 nM; at JAK2, 100 to 1000 nM.
The like results for `O=C(O)Cc1ccc(Nc2nc(-c3ccccc3Cl)nc3c2C(=O)NC3)cc1` [Compound I-7, 2-(4-((2-(2-chlorophenyl)-5-oxo-6,7-dihydro-5H-pyrrolo[3,4-d]pyrimidin-4-yl)amino)phenyl)acetic Acid] were, in that order, 10 to 100 nM and more than 1000 nM.
`NC(=O)Cc1ccc(Nc2nc(-c3ccccc3Cl)nc3c2C(=O)NC3)cc1` [Compound I-8, 2-(4-((2-(2-chlorophenyl)-5-oxo-6,7-dihydro-5H-pyrrolo[3,4-d]pyrimidin-4-yl)amino)phenyl)acetamide]: the Ki was 10 to 100 nM at TYK2 and more than 1000 nM at JAK2.
The like results for `N#Cc1cc(Cl)c(-c2nc3c(c(Nc4ccc(CC(=O)O)cc4)n2)C(=O)NC3)c(Cl)c1` [Compound I-9, 2-(4-((2-(2,6-dichloro-4-cyanophenyl)-5-oxo-6,7-dihydro-5H-pyrrolo[3,4-d]pyrimidin-4-yl)amino)phenyl)acetic Acid] were, in that order, less than 10 nM and 100 to 1000 nM.
For `O=C(O)Cc1ccc(Nc2nc(-c3c(F)cccc3Cl)nc3c2C(=O)NC3)cc1` [Compound I-10, 2-(4-((2-(2-chloro-6-fluorophenyl)-5-oxo-6,7-dihydro-5H-pyrrolo[3,4-d]pyrimidin-4-yl)amino)phenyl)acetic Acid] the same measures were less than 10 nM and 100 to 1000 nM.
Turning to `O=C(Cc1ccc(Nc2nc(-c3c(F)cccc3F)nc3c2C(=O)NC3)cc1)NC1CCNCC1` [Compound I-11, 2-(4-((2-(2,6-difluorophenyl)-5-oxo-6,7-dihydro-5H-pyrrolo[3,4-d]pyrimidin-4-yl)amino)phenyl)-N-(piperidin-4-yl)acetamide], the Ki is less than 10 nM at TYK2 and 100 to 1000 nM at JAK2.
With `O=C(Cc1ccc(Nc2nc(-c3c(F)cccc3F)nc3c2C(=O)NC3)cc1)NCC1CCNCC1` [Compound I-13, 2-(4-((2-(2,6-difluorophenyl)-5-oxo-6,7-dihydro-5H-pyrrolo[3,4-d]pyrimidin-4-yl)amino)phenyl)-N-(piperidin-4-ylmethyl)acetamide], the Ki is less than 10 nM on TYK2 and 100 to 1000 nM on JAK2.
On to `O=C(Cc1ccc(Nc2nc(-c3c(F)cccc3F)nc3c2C(=O)NC3)cc1)NC1CC2(CNC2)C1` [Compound I-14, 2-(4-((2-(2,6-difluorophenyl)-5-oxo-6,7-dihydro-5H-pyrrolo[3,4-d]pyrimidin-4-yl)amino)phenyl)-N-(2-azaspiro[3.3]heptan-6-yl)acetamide], for which the inhibition constant (Ki) was less than 10 nM on TYK2 and 100 to 1000 nM on JAK2.
On to `O=C1NCc2nc(-c3c(F)cccc3F)nc(Nc3ccc(CC(=O)N4CCC[C@@H]4CO)cc3)c21` [Compound I-15, (R)-2-(2,6-difluorophenyl)-4-((4-(2-(2-(hydroxymethyl)pyrrolidin-1-yl)-2-oxoethyl)phenyl)amino)-6,7-dihydro-5H-pyrrolo[3,4-d]pyrimidin-5-one], for which the Ki was less than 10 nM at TYK2 and 100 to 1000 nM on JAK2.
On to `O=C(O)Cc1ccc(Nc2nc(-c3c(F)cccc3F)nc3c2C(=O)NC3)cn1` [Compound I-17], for which the Ki at TYK2 is 100 to 1000 nM; at JAK2 it was more than 1000 nM.
The like results for `COC(=O)Cc1ccc(Nc2nc(-c3c(F)cccc3F)nc3c2C(=O)NC3)cn1` [Compound I-18, methyl 2-(5-((2-(2,6-difluorophenyl)-5-oxo-6,7-dihydro-5H-pyrrolo[3,4-d]pyrimidin-4-yl)amino)pyridin-2-yl)acetate] were, in that order, 100 to 1000 nM and more than 1000 nM.
The like results for `O=C(Cc1ccc(Nc2nc(-c3c(F)cccc3F)nc3c2C(=O)NC3)cn1)NC1CCNCC1` [Compound I-19, 2-(5-((2-(2,6-difluorophenyl)-5-oxo-6,7-dihydro-5H-pyrrolo[3,4-d]pyrimidin-4-yl)amino)pyridin-2-yl)-N-(piperidin-4-yl)acetamide] were, in that order, 100 to 1000 nM and more than 1000 nM.
For the molecule `CN(C(=O)Cc1ccc(Nc2nc(-c3c(F)cccc3F)nc3c2C(=O)NC3)cc1)C1CCNCC1` [Compound I-22, 2-(4-((2-(2,6-difluorophenyl)-5-oxo-6,7-dihydro-5H-pyrrolo[3,4-d]pyrimidin-4-yl)amino)phenyl)-N-methyl-N-(piperidin-4-yl)acetamide], the Ki on TYK2 is less than 10 nM; on JAK2, 10 to 100 nM.
The like results for `CCNC(=O)Cc1ccc(Nc2nc(-c3c(F)cccc3F)nc3c2C(=O)NC3)cn1` [Compound I-23, 2-(5-((2-(2,6-difluorophenyl)-5-oxo-6,7-dihydro-5H-pyrrolo[3,4-d]pyrimidin-4-yl)amino)pyridin-2-yl)-N-ethylacetamide] were, in that order, 10 to 100 nM and more than 1000 nM.
For `COC(=O)Cc1ncc(Nc2nc(-c3c(F)cccc3F)nc3c2C(=O)NC3)cn1` [Compound I-166, methyl 2-(5-((2-(2,6-difluorophenyl)-5-oxo-6,7-dihydro-5H-pyrrolo[3,4-d]pyrimidin-4-yl)amino)pyrimidin-2-yl)acetate], on TYK2, the Ki was in the range of 100 to 1000 nM.
On the same count and under the same terms, the result for `O=C1NCc2nc(-c3c(F)cccc3F)nc(Nc3ccc(OC(F)(F)F)cc3)c21` [Compound I-184, 2-(2,6-difluorophenyl)-4-((4-(trifluoro-methoxy)phenyl)amino)-6,7-dihydro-5H-pyrrolo[3,4-d]pyrimidin-5-one] reads 10 to 100 nM; that for `O=C1NCc2nc(-c3c(F)cccc3F)nc(Nc3ccc(C4CCCCC4)cc3)c21` [Compound I-197, 4-((4-cyclohexylphenyl)amino)-2-(2,6-difluorophenyl)-6,7-dihydro-5H-pyrrolo[3,4-d]pyrimidin-5-one], 100 to 1000 nM.
Take `O=C1NCc2nc(-c3c(F)cccc3F)nc(Nc3ccc(S(=O)(=O)C(F)(F)F)cc3)c21` [Compound I-236, 2-(2,6-difluorophenyl)-4-((4-((trifluoromethyl)sulfonyl)phenyl)-amino)-6,7-dihydro-5H-pyrrolo[3,4-d]pyrimidin-5-one]: the inhibitory constant (Ki) on TYK2 lay within 10 to 100 nM.
For the molecule `COc1ccc(Nc2cc(-c3c(F)cccc3F)nc3c2C(=O)N[C@H]3C)nc1` [Compound I-241, (S)-2-(2,6-difluorophenyl)-4-((5-methoxypyridin-2-yl)amino)-7-methyl-6,7-dihydro-5H-pyrrolo[3,4-b]pyridin-5-one], on TYK2, the Ki lay in the range of 100 to 1000 nM.
On the same count and under the same terms, for `Cc1ccc(Nc2nc(-c3c(F)cccc3F)nc3c2C(=O)NC3)cc1F` [Compound I-292, 2-(2,6-difluorophenyl)-4-((3-fluoro-4-methylphenyl)amino)-6,7-dihydro-5H-pyrrolo[3,4-d]pyrimidin-5-one] the value was 10 to 100 nM.
